Results taken from publication PMC6151550, “Inhibitory Effect of Selaginellins from Selaginella tamariscina (Beauv.) Spring against Cytochrome P450 and Uridine 5′-Diphosphoglucuronosyltransferase Isoforms on Human Liver Microsomes” (Molecules : A Journal of Synthetic Chemistry and Natural …, 2017).
Read-outs that look alike come from different tables or passages of the source.

Experiments:
Assay type in all cases: in vitro ADME
CYP1A2 = target: T1, CYP1A2 (Homo sapiens, UniProt P05177); experiment: CYP1A2 inhibition (phenacetin O-deethylase) in human liver microsomes, substrate cocktail LC-MS/MS
T1 construct: the incubation mixtures containing pooled HLMs (0.25 mg/mL, H2630, Xenotech); tissue Xenotech H2630; host or cells: pooled human liver microsomes
T1 sequence (P05177 1-516): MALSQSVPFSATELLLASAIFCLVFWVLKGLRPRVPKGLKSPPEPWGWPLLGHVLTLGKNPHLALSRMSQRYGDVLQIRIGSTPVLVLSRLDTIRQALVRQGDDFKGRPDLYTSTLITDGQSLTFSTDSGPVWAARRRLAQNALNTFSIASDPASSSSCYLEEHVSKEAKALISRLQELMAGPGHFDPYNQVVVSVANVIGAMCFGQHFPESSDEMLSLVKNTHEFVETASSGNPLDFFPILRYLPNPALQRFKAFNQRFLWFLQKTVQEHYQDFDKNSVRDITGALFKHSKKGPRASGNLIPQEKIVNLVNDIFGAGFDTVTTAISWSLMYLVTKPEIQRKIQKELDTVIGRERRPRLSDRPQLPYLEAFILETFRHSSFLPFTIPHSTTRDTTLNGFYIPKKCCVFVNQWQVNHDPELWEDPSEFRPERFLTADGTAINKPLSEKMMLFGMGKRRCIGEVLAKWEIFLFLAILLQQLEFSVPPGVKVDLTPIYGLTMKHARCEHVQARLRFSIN
Method: (§1) The inhibitory effects of two selaginellins on the metabolism of ten P450 probe substrates were evaluated using previously reported method with minor modification. Phenacetin O-deethylase, coumarin 7-hydroxylase, bupropion 4-hydroxylase, amodiaquine N-deethylase, tolbutamide 4-hydroxylase, omeprazole 5-hydroxylase, dextromethorphan O-demethylase, chlorzoxazone 6-hydroxylase and midazolam 1′-hydroxylase activities were determined as probe activities for CYP1A2, CYP2A6, CYP2B6, CYP2C8, CYP2C9, CYP2C19, CYP2D6, CYP2E1 and […], respectively, using substrate cocktail incubation and tandem mass spectrometry (Table 2). Selaginellins were dissolved in methanol. The final concentrations of organic solvent (methanol) for the cocktail incubation conditions in all experiments were 1.0% (v/v). In brief, the incubation mixtures containing pooled HLMs (0.25 mg/mL, H2630, Xenotech), P450 probe substrate cocktail, and inhibitor (0, 0.5, 2, 5, 20 and 50 μM) were preincubated at 37 °C for 5 min. […] After mixing and centrifugation, aliquots were analyzed by liquid chromatography-tandem mass spectrometry (LC-MS/MS) as previous described. The CYP2J2 inhibitory effects of two selaginellins were also evaluated in pooled HLMs using previously reported method. […]

UGT1A6 = target: T2, UGT1A6 (Homo sapiens, UniProt P19224); experiment: UGT1A6 inhibition (N-acetylserotonin glucuronidation) in human liver microsomes, cocktail LC-MS/MS
T2 construct: from tissue; host or cells: human liver microsomes
T2 sequence (P19224 27-532): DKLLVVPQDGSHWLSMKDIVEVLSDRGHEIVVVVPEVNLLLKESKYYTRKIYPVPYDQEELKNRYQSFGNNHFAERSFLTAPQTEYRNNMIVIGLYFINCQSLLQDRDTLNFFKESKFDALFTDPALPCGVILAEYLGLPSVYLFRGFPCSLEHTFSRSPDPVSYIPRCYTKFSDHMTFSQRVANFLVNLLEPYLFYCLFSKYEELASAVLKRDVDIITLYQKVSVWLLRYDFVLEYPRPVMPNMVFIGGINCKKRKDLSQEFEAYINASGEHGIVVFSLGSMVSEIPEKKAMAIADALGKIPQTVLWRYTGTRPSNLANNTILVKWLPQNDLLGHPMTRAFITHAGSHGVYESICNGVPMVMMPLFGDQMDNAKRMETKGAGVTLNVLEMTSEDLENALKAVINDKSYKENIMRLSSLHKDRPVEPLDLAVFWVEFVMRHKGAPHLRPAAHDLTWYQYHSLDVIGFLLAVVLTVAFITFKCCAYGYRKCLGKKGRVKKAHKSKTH
Method: The inhibitory effects of two selaginellins on the metabolism of six UGT probe substrates were evaluated using previously reported method with minor modification. In brief, HLMs (0.25 mg/mL) were activated by incubation in the presence of alamethicin (25 μg/mL) for 15 min on ice. After the addition of UGT isoform-selective substrates and selaginellins (0, 0.5, 2, 5, 20 and 50 μM) the final concentrations of organic solvent (methanol) for the cocktail incubation conditions were 1.0% (v/v). The incubation reaction mixtures were pre-incubated for 5 min. The reaction was initiated by the addition of 5 mM UDPGA and further incubated for 60 min. All reactions were terminated by adding ice-cold acetonitrile containing estrone glucuronide (IS). After mixing and centrifugation, aliquots were injected into a LC-MS/MS as described previously (Table 2). All microsomal incubations were performed in triplicate.
The IC50 values (concentration of the inhibitor causing 50% inhibition of the original enzyme activity) were calculated using WinNonlin software (Pharsight, Mountain View, CA, USA): percentage of control activity = 100 × [1 − (I/(I + IC50))], where I is the inhibitor concentration, and IC50 is the inflection point on the curve.

CYP2C9 = target: T3, CYP2C9 (Homo sapiens, UniProt P11712); experiment: CYP2C9 inhibition (tolbutamide 4-hydroxylase) in human liver microsomes, substrate cocktail LC-MS/MS; conditions: IC50 P450 isoform 2C9, pooled HLMs 0.25 mg/mL, tolbutamide 100 μM
T3 construct: the incubation mixtures containing pooled HLMs (0.25 mg/mL, H2630, Xenotech); tissue Xenotech H2630; host or cells: pooled human liver microsomes
Method: as §1

CYP2B6 = target: T4, CYP2B6 (Homo sapiens, UniProt P20813); experiment: CYP2B6 inhibition (bupropion 4-hydroxylase) in human liver microsomes, substrate cocktail LC-MS/MS
T4 construct: the incubation mixtures containing pooled HLMs (0.25 mg/mL, H2630, Xenotech); tissue Xenotech H2630; host or cells: pooled human liver microsomes
T4 sequence (P20813 1-491): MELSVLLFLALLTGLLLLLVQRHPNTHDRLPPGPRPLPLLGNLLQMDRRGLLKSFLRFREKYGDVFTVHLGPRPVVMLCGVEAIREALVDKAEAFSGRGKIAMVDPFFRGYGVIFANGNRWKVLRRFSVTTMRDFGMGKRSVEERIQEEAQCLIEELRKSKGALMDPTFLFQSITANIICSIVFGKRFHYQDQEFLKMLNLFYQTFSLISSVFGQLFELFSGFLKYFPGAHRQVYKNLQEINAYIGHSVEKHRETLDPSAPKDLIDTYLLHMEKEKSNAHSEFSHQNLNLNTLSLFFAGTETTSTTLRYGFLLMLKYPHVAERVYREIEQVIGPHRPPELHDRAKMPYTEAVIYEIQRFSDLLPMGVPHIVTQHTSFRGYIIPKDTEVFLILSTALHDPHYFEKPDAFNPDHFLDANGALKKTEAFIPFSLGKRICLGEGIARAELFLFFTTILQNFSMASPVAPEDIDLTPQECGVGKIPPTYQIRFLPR
Method: as §1

T3 sequence (P11712 whole entry, canonical isoform): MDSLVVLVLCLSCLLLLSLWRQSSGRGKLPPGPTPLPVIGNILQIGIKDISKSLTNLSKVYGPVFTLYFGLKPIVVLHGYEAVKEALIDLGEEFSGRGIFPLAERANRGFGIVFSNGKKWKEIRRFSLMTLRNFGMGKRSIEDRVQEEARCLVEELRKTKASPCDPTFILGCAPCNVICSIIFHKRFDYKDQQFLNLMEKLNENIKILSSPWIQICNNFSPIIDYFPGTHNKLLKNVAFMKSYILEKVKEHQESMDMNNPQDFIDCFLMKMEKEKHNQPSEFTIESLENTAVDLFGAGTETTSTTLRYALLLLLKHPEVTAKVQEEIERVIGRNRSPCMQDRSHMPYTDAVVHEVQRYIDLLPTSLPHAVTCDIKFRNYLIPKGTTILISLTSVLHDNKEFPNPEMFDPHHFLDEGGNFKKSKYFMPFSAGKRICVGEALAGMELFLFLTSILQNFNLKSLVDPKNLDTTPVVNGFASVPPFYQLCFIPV

| IC50 (CYP1A2; pooled HLMs 0.25 mg/mL, phenacetin 100 μM, read-out: IC50 P450 isoform 1A2) | Structure (SMILES) | IC50 (UGT1A6) | IC50 (CYP2C9) | IC50 (CYP2B6) | IC50 (CYP1A2) |
| --- | --- | --- | --- | --- | --- |
| > 50 µM | COc1ccc(C(=C2C=CC(=O)C=C2)c2c(-c3ccc(O)cc3)ccc(CO)c2C#Cc2ccc(O)cc2)cc1 [Selaginellin M] | 36.5 µM | 3.9 µM | 11.3 µM | – |
| – | O=C1C=CC(=C(c2ccc(O)cc2)c2c(-c3ccc(O)cc3)ccc(CO)c2C#Cc2ccc(O)cc2)C=C1 [Selaginellin] | 25.3 µM | 1.2 µM | 10.7 µM | 36.4 µM |
